Values joined by “and” are separate entries in the source; they are usually repeats but may differ in a detail not shown here. Identical values can stand only once.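 The compound was tested at five concentrations on cells cultured in 96-well plates, with a 48-hour exposure period. Here, GI50 denotes the concentration required for 50% inhibition of growth. TGI denotes the concentration required for complete inhibition of growth.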
Columns and labels:
Assay in all cases: NCI-60 cell line screen, 48 h
OVCAR-3 ovarian = system: OVCAR-3 ovarian
OVCAR-5 ovarian = system: OVCAR-5 ovarian
MDA-MB-435 = system: MDA-MB-435
SW-620 colon = system: SW-620 colon
K-562 leukemia = system: K-562 leukemia
HCT-116 colon = system: HCT-116 colon
HL-60(TB) leukemia = system: HL-60(TB) leukemia
M14 melanoma = system: M14 melanoma
RXF 393 renal = system: RXF 393 renal
DU-145 prostate = system: DU-145 prostate

SMILES	GI50 (OVCAR-3 ovarian)	TGI (OVCAR-3 ovarian)	GI50 (OVCAR-5 ovarian)	TGI (OVCAR-5 ovarian)	TGI (MDA-MB-435) [µM]	GI50 (SW-620 colon)	TGI (SW-620 colon)	GI50 (K-562 leukemia)	TGI (K-562 leukemia)	GI50 (HCT-116 colon)	TGI (HCT-116 colon)	GI50 (HL-60(TB) leukemia)	TGI (HL-60(TB) leukemia)	TGI (M14 melanoma)	TGI (RXF 393 renal)	TGI (DU-145 prostate)	GI50 (MDA-MB-435)	GI50 (M14 melanoma)	GI50 (RXF 393 renal)	GI50 (DU-145 prostate)
O=C1c2c(O)cc(O)cc2OC(c2ccc(O)cc2O)C1O (stereo not drawn)	> 100 µM	> 100 µM	> 100 µM	> 100 µM	> 100	> 100 µM	> 100 µM	> 100 µM	> 100 µM	> 100 µM	> 100 µM	> 100 µM	> 100 µM	> 100 µM	> 100 µM	> 100 µM	–	–	–	–
CS(=O)(=O)CCNCc1ccc(-c2ccc3ncnc(Nc4ccc(OCc5ccccc5)c(Cl)c4)c3c2)o1	6.54 µM	> 25 µM	3.61 µM	18.8 µM	9.78	4.49 µM	8.98 µM	5.45 µM	14.4 µM	4.53 µM	9.54 µM	5.2 µM	11.8 µM	10 µM	6.33 µM	> 25 µM	4.47 µM	4.82 µM	1.61 µM	7.91 µM
O=C(O)c1ccc2c(c1)nc(Nc1cccc(Cl)c1)c1ccncc12	1.2 µM and 1.68 µM	4.15 µM and > 10 µM	3.2 µM and 4.53 µM	38.7 µM and > 10 µM	> 31.6	3.1 µM and 3.97 µM	26.5 µM and > 10 µM	3.06 µM and 4.09 µM	15.7 µM and > 10 µM	2.39 µM and 2.82 µM	8.69 µM and > 10 µM	2.88 µM and 4.98 µM	7.67 µM and > 10 µM	5.39 µM and 9.68 µM	13 µM and > 10 µM	47.3 µM and > 10 µM	2.67 µM and 3.01 µM	1.52 µM and 2.2 µM	3.23 µM and 4.17 µM	4.92 µM and 6.02 µM
CCc1nc(N)nc(N)c1-c1ccc(NCCc2ccccc2)c([N+](=O)[O-])c1	–	32.2 µM	–	> 73.4 µM	> 73	–	> 79.4 µM	–	> 36.3 µM	–	36.7 µM	–	6.77 µM	39.3 µM	40.7 µM	> 53.8 µM	–	–	–	–
CN(C[C@@H]1COCCO1)S(=O)(=O)Nc1ccc2ccc3ncc(-c4cnn(C)c4)cc3c(=O)c2c1	11.8 µM	> 100 µM	> 81.2 µM	> 100 µM	> 100	4.74 µM	> 100 µM	6.57 µM	> 100 µM	3.87 µM	> 100 µM	6.77 µM	> 100 µM	> 100 µM	6.71 µM	> 100 µM	7.13 µM	3.89 µM	1.1 µM	6.86 µM
O=C(CCCCCCSc1nc(-c2ccc(Cl)cc2)cc(-c2ccc(Cl)cc2)n1)NO	1.38 µM	4.91 µM	1.55 µM	5.63 µM	13.6	1.71 µM	24.2 µM	1.65 µM	> 50 µM	1.45 µM	6.05 µM	1.97 µM	> 50 µM	3.87 µM	2.83 µM	4.9 µM	1.86 µM	1.26 µM	1.07 µM	1.46 µM
CC(=O)[O][Hg][c]1ccccc1	0.147 µM	0.295 µM	2.19 µM	3.84 µM	2.19	0.215 µM	0.492 µM	0.294 µM	1.31 µM	0.264 µM	0.667 µM	0.201 µM	0.487 µM	1.06 µM	0.797 µM	2.72 µM	0.808 µM	0.283 µM	0.234 µM	1.25 µM
Cn1c(=S)c2[nH]c(SCCN3CCCC3)nc2n(C)c1=O	–	> 100 µM	–	> 100 µM	> 100	–	> 100 µM	–	> 100 µM	–	> 100 µM	–	> 100 µM	> 100 µM	> 100 µM	> 100 µM	–	–	–	–
O=C(OCc1ccc2c(Cl)cc(Cl)c(O)c2n1)c1cc2ccccc2[nH]1	0.198 µM	0.398 µM	0.65 µM	1.97 µM	1.04	0.241 µM	0.613 µM	0.336 µM	10.2 µM	0.174 µM	0.372 µM	0.374 µM	1.69 µM	0.898 µM	1.08 µM	2.19 µM	0.318 µM	0.279 µM	0.338 µM	0.916 µM
NC(=O)/C=C/NC(=O)/C=N\O	–	> 100 µM	–	> 100 µM	> 100	–	> 100 µM	–	> 100 µM	–	> 100 µM	–	> 100 µM	> 100 µM	> 100 µM	> 100 µM	–	–	–	–
COc1ccc(-c2cc(=O)c3c(O)cc(C)cc3o2)cc1OC	–	> 100 µM	–	> 100 µM	> 100	–	> 100 µM	–	> 100 µM	–	> 100 µM	–	> 100 µM	> 100 µM	> 100 µM	> 100 µM	–	–	–	–
C#Cc1cccc(Nc2nc3ccc([N+](=O)[O-])cc3nc2Nc2cccc(C#C)c2)c1	0.193 µM	0.67 µM	0.338 µM	1.35 µM	0.838	0.291 µM	1.09 µM	0.216 µM	0.7 µM	0.214 µM	0.715 µM	0.299 µM	0.788 µM	0.495 µM	0.618 µM	1.47 µM	0.265 µM	0.199 µM	0.227 µM	0.367 µM
COc1ccc2c(c1)[n+](=O)c(C(=O)/C=C/c1cc(OC)c(OC)c(OC)c1)c(C)n2[O-]	27.3 µM	> 100 µM	20.8 µM	62.9 µM	> 100	> 100 µM	> 100 µM	> 100 µM	> 100 µM	16.9 µM	65.5 µM	> 100 µM	> 100 µM	> 100 µM	21.5 µM	25.4 µM	> 100 µM	23.3 µM	6.47 µM	10.7 µM
COc1ccc(-c2csc(-c3cc(Cl)cc(Cl)c3Cl)n2)cc1	86.8 µM	> 100 µM	> 100 µM	> 100 µM	> 100	42.4 µM	> 100 µM	46 µM	> 100 µM	> 100 µM	> 100 µM	78.3 µM	> 100 µM	> 100 µM	> 100 µM	> 100 µM	21.8 µM	> 100 µM	46.4 µM	63.9 µM
Cc1ccc(S(=O)(=O)Cc2nc(-c3ccc(C(=O)NCc4cccnc4)cc3)oc2C)cc1	8.1 µM	> 100 µM	–	> 100 µM	12	< 0.01 µM	> 100 µM	< 0.01 µM	> 100 µM	< 0.01 µM	> 100 µM	1.97 µM	> 100 µM	> 100 µM	> 100 µM	> 100 µM	0.054 µM	0.0699 µM	27.6 µM	0.0907 µM
Nc1c(C(=O)Nc2ccccc2F)sc2nc3c(cc12)C(=O)CCC3	0.576 µM	3.9 µM	4.05 µM	> 100 µM	0.661	0.721 µM	> 100 µM	0.553 µM	> 100 µM	0.646 µM	> 100 µM	2.4 µM	> 100 µM	> 100 µM	3.82 µM	> 28.6 µM	0.216 µM	0.645 µM	0.738 µM	1.81 µM
COc1ccc(C(=O)/C=C/c2ccc(OCC(=O)N3CCN(c4ccccc4)CC3)cc2)cc1	–	> 100 µM	–	> 100 µM	> 100	–	> 100 µM	–	> 100 µM	–	> 100 µM	–	> 67.3 µM	> 100 µM	74 µM	> 100 µM	–	–	–	–
CCCCn1sc(=O)n(Cc2ccc(CNC(=O)OCc3ccc4c(Br)cc(Br)c(O)c4n3)cc2)c1=O	0.292 µM	0.8 µM	> 24.7 µM	> 100 µM	0.731	0.42 µM	> 100 µM	0.434 µM	> 100 µM	0.344 µM	> 100 µM	0.374 µM	–	> 100 µM	> 100 µM	–	0.257 µM	0.37 µM	0.47 µM	0.4 µM
CCN1C(=O)N(c2ccccc2)C2NN=c3s/c(=C4\C(=O)N(C(C)C)c5ccccc54)c(=O)n3C21 (stereo not drawn)	0.886 µM	3.1 µM	3.38 µM	> 100 µM	0.991	0.891 µM	> 100 µM	0.518 µM	> 100 µM	2.18 µM	8.24 µM	1.03 µM	> 23.6 µM	> 35.6 µM	2.63 µM	> 29.4 µM	0.283 µM	0.979 µM	0.612 µM	1.41 µM
C#CCOc1cccc(Nc2ncnc3ccc(NC(=O)CCl)cc23)c1	0.908 µM	7.06 µM	3.04 µM	19.4 µM	20.2	0.0614 µM	5.88 µM	0.117 µM	> 100 µM	0.0493 µM	5.25 µM	1.66 µM	19.2 µM	18.8 µM	19 µM	14.1 µM	1.4 µM	1.07 µM	4.47 µM	0.73 µM
CC1=C[S+](c2ccccc2)c2cccc3cc4ccccc4c1c23 (stereo not drawn)	0.323 µM	1.44 µM	1.11 µM	2.52 µM	1.61	0.321 µM	1.65 µM	0.0712 µM	3.85 µM	0.0655 µM	–	0.173 µM	1.03 µM	–	2.05 µM	2.13 µM	0.276 µM	0.189 µM	0.618 µM	0.515 µM
CCCSC1=NC2C(N(CC)C(=O)N2CC)N1/N=C/C=C/c1ccccc1[N+](=O)[O-] (stereo not drawn)	3.11 µM	14.9 µM	5.65 µM	> 100 µM	7.24	4.25 µM	> 100 µM	2.31 µM	> 100 µM	3.2 µM	> 100 µM	3.27 µM	12.1 µM	20.8 µM	8.32 µM	> 100 µM	2.02 µM	2.83 µM	1.8 µM	3.51 µM
CCc1nc(Cl)nc(Cl)c1Cl	–	2.08 µM	–	9.81 µM	6.53	–	5.17 µM	–	3.62 µM	–	4.62 µM	–	3.59 µM	5.29 µM	4.37 µM	23.1 µM	–	–	–	–
Cc1nc2n(c(=O)c1CCN1CCC(c3noc4cc(F)ccc34)CC1)CCCC2	> 50 µM	> 50 µM	> 50 µM	> 50 µM	> 50	> 50 µM	> 50 µM	> 50 µM	> 50 µM	> 50 µM	> 50 µM	> 50 µM	> 50 µM	> 50 µM	> 50 µM	> 50 µM	> 50 µM	> 50 µM	> 50 µM	> 50 µM
COc1cnc2c(c1)C(=O)c1c-2n(CCCN2CCCC2)c(=O)c2cc(F)ccc12	0.307 µM	1.51 µM	0.41 µM	3.23 µM	13.9	0.199 µM	2.27 µM	0.263 µM	1.55 µM	0.153 µM	0.663 µM	0.311 µM	1.13 µM	1.95 µM	1.53 µM	1.34 µM	0.49 µM	0.392 µM	0.36 µM	0.211 µM
O=[N+]([O-])c1ccc2ncccc2c1Cl	2.77 µM	6.99 µM	3.44 µM	> 100 µM	9.07	0.627 µM	16 µM	0.382 µM	27.1 µM	1.57 µM	7.23 µM	1.92 µM	7.78 µM	11.5 µM	8.81 µM	10.2 µM	2.18 µM	3.01 µM	2.74 µM	3.4 µM
O=C(NCCCCCCCCNC(=O)c1cccc2ccccc12)c1cccc2ccccc12	–	> 79.9 µM	–	> 100 µM	> 100	–	> 100 µM	–	> 100 µM	–	> 83.4 µM	–	> 100 µM	> 87 µM	7.74 µM	> 100 µM	–	–	–	–
N#Cc1ccc(C(c2ccc(C#N)cc2)n2cncn2)cc1	> 5000 µM	> 5000 µM	> 5000 µM	> 5000 µM	> 5000	> 5000 µM	> 5000 µM	3800 µM	> 5000 µM	–	–	> 5000 µM	> 5000 µM	> 5000 µM	–	> 5000 µM	> 5000 µM	> 5000 µM	18.3 µM	> 5000 µM

Source: PubChem BioAssay (NCI)
